Where a name gives a salt, the structure may show the parent alone.
How the values were obtained:
[1] = test system: calf intestine alkaline phosphatase; assay: Kinetic study of alkaline phosphatase with substrate (double reciprocal plot); format: biochemical; details: 540 nm, substrate 0.1-10 mmolar, enzyme 0.01 I.U./ml, sodium carbonate 100 mmolar, pH 10
From the text: The magnesium salt substrate prepared in Example 1 was used to determine reaction rates and kinetic parameters for alkaline phosphatase at 540 nm. The study was done by using the substrate (concentration range 0.1 mmolar to 10 mmolar), calf intestine alkaline phosphatase (0.01 I.U./ml), sodium carbonate (100 mmolar, pH 10), magnesium chloride (1 mmolar) and zinc perchlorate (1 mmolar). From the data obtained, a double reciprocal plot was drawn.

beef liver ALP = assay: Solution assay for alkaline phosphatase (fluorescence); format: biochemical; details: excitation 535 nm, emission 580 nm
Description: A solution was prepared using the substrate of Example 1 (10^-5 molar), magnesium acetate ([…]) and TRIS buffer (0.1 molar, pH 8.5). One milliliter of this solution was placed in each of two test cells. To one cell was added beef liver ALP (100 μl, 10^-5 molar). No ALP was placed in the second cell.
The relative fluorescence of the solution in the test cell containing the ALP-hydrolyzed substrate was measured at an excitation of 535 nm and an emission of 580 nm. […]

| Structure (SMILES) | rate of reaction (Vmax) [1] | Km ([1]; MgCl2 1 mmolar, zinc perchlorate 1 mmolar, read-out: Michaelis constant (Km)) [µM] | relative fluorescence of unhydrolyzed substrate (beef liver ALP; no ALP added) | relative fluorescence of ALP-hydrolyzed substrate (beef liver ALP; substrate 10^-5 molar, TRIS 0.1 molar pH 8.5, with beef liver ALP) |
| --- | --- | --- | --- | --- |
| O=C1C=Cc2ccc(OP(=O)(O)O)c3cccc1c23 [phenalenone-6-phosphate magnesium salt] | 0.029 absorbance (A) units/minute | 1400 | – | – |
| O=C1C=Cc2ccc(OP(=O)(O)O)c3cccc1c23 [substrate of Example 1, PHENALENONE-6-PHOSPHATE] | – | – | Minimal fluorescence | rapid generation of fluorescence |

Reference: US4803157A, “Hydrolyzable fluorescent substrates for phosphatases and analytical use thereof” (Eastman Kodak Company, priority 1986, dated 1989)
